From publication PMC9953468, “In Silico, In Vitro, and Ex Vivo Biological Activity of Some Novel Mebeverine Precursors” (Biomedicines, 2023) come the findings set out here.

Structures can show the parent of a compound that is named as a salt. Where two headings read alike, the source gives them in different places. Where only a bound is given, the exact number is not on record here.

Series [1] can be described thus: MTT cell viability assay. The series is classed as cell-based. The note with it: mouse, CCL-1 normal fibroblast cells, CCL-1, normal murine fibroblast cells, read-out: In vitro cytotoxicity (IC50). The method, then: (§1) In order to evaluate the in vitro biocompatibility of the experimental compounds, a series of cell viability assays were performed against human malignant leukemic cell lines (LAMA-84, K-562) as well as normal murine fibroblast cells (CCL-1). All cell lines were purchased from the German Collection of Microorganisms and Cell Cultures (DSMZ GmbH, Braunschweig, Germany). Cell cultures were cultivated in a growth medium RPMI 1640 supplemented with 10% fetal bovine serum (FBS), 5% L-glutamine, and incubated under standard conditions of 37 °C and 5% humidified CO2 atmosphere.
(§2) The experimental design involved a number of cytotoxicity assays that measured cell growth inhibition by the newly synthesized compounds. Cell viability was evaluated using a standard MTT-based colorimetric assay. Exponential-phased cells were harvested and seeded (100 μL/well) in 96-well plates at the appropriate density (3 × 10^5) for the suspension cultures (LAMA-84 and K-562) and 1.5 × 10^5 for the adherent one (CCL-1). Cells were treated and incubated with various concentrations of the experimental compounds in the concentration range of 400-6.25 µM. After exposure time of 72 h, a filter-sterilized MTT substrate solution (5 mg/mL in PBS) was added to each well of the culture plate. A further 1–4 h incubation allowed for the formation of purple insoluble formazan precipitates. The latter were dissolved in isopropyl alcohol solution containing 5% formic acid prior to absorbance measurement at 550 nm using a microplate reader (Labexim LMR-1). Collected absorbance values were blanked against MTT and isopropanol solution and normalized to the mean value of the untreated control (100% cell viability). Semi-logarithmic “dose–response” curves were constructed and the half-inhibitory concentrations of the screened compounds against each tested cell line were calculated. Values of p ≤ 0.05 were considered statistically significant.

In series [2] the test system is Eighteen tested microorganisms (Gram-positive bacteria, Gram-negative bacteria, yeasts, fungi). Briefly: Antimicrobial activity, agar well diffusion method, whole panel. The series is classed as cell-based. As to conditions: whole panel of tested microorganisms, in words. The text has this: Eighteen tested microorganisms including five Gram-positive bacteria (Bacillus subtilis ATCC 6633, Bacillus amyloliquefaciens 4BCL-YT, Staphylococcus aureus ATCC 25923, Listeria monocytogenes NBIMCC 8632, Enterococcus faecalis ATCC 19433), five Gram-negative bacteria (Salmonella enteritidis ATCC 13076, Klebsiella sp.—clinical isolate, Escherichia coli ATCC 25922, Proteus vulgaris ATCC 6380, Pseudomonas aeruginosa ATCC 9027), two yeasts (Candida albicans NBIMCC 74, Saccharomyces cerevisiae ATCC 9763) and six fungi (Aspergillus niger ATCC 1015, Aspergillus flavus, Penicillium sp., Rhizopus sp., Mucor sp.—plant isolates, Fusarium moniliforme ATCC 38932) from the collection of the Department of Microbiology at the University of Food Technologies—Plovdiv, Bulgaria, were selected for the antimicrobial activity test.
The antimicrobial activity of the samples was determined by the agar well diffusion method. The tested bacteria B. subtilis and B. amyloliquefaciens were cultured on LBG agar at 30 °C. The test bacteria S. aureus, L. monocytogenes, E. faecalis, S. enteritidis, Klebsiella sp., E. coli, P. vulgaris and P. aeruginosa were cultured on LBG agar at 37 °C for 24 h. The yeast C. albicans was cultured on MEA at 37 °C, while S. cerevisiae was cultured on MEA at 30 °C for 24 h. The fungi A. niger, A. flavus, Penicillium sp., Rhizopus sp., Mucor sp., and F. moniliforme were grown on MEA at 30 °C for 7 days or until sporulation.
The inocula of the tested bacteria/yeasts were prepared by homogenization of a small amount of biomass in 5 mL of sterile 0.5% NaCl. […] The number of viable cells and fungal spores was determined using a bacterial counting chamber Thoma (Poly-Optik, GmbH, Bad Blankenburg, Germany). […] Next, the inoculated media were transferred in a quantity of 18 mL in sterile Petri plates (d = 90 mm) (Gosselin™, Hazebrouck, France) and allowed to harden. […]
The antimicrobial activity was determined by measuring the diameter of the inhibition zones around the wells on the 24th and 48th h of incubation. […]

Series [3] relates to 5-HT3 receptor. Briefly: Immunohistochemical analysis of 5-HT3 expression in gastric SM strips. Set-up: species or system Wistar rats. The note with it: immunohistochemical staining after 1 h incubation, in words. The method, then: […] Then, each SM strip was fixed in 10% neutral buffer formalin for 24–48 h and submitted for standard processing with hematoxylin and eosin staining.
The SM fragments from a rat’s gastric wall were fixed in a 10% neutral formalin solution and embedded in paraffin. Paraffin sections of 5 μm thickness were subjected to hematoxylin and eosin (H-E) staining for histochemical analysis.
Sections of the SM fragments from the wall of a rat’s stomach with a thickness of 5 µm were deparaffinized, then subjected to antigenic detection of the epitopes with citrate buffer, and an endogenous peroxidase blockade was made with hydrogen […] 3%, a kit was used to block the endogenous biotin, and a reagent was used to block non-specific binding (Superblock, Scy Tek, Santa Cruz Biotech. Inc. Heidelberg, Germany) follows incubate for 24 h (at 4 °C) with monoclonal mouse anti-5-HT3, next incubated with a secondary antibody: biotinylated anti-rabbit for 10 min at room temperature. The reaction was visualized with 3,3′-diaminobenzidine tetrachloride and counterstained with Mayer’s hematoxylin.
A quantitative and statistical analysis of immunohistochemical reaction using the Olympus DP-Soft image system (version 4.1 for Windows) was carried out on a Microphot-SA (Nikon, Japan) microscope equipped with a Camedia-5050 Z digital camera (Olympus, Japan). The analysis was performed on sections from the SM strips from the stomach of Wistar rats (n = 6 for each group). Five sections of the SM strips were measured, and the percentage of cells expressing 5-HT3 in the circular and longitudinal layer of SM cells, as well as in the myenteric plexus of the stomach, was determined. Each antibody was analyzed for five fields, in each of them the average number of cells with positive unit area response at ×200 magnification.

In series [4] the test system is LAMA-84. Briefly: MTT cell viability assay. It is filed as cell-based, human. As to conditions: LAMA-84, CML in blast crisis (bcr-abl+), 72 h, ± SD. How it is done: as §1, §2
In series [5] the test system is K-562. Briefly: MTT cell viability assay. The series is classed as cell-based, human. As to conditions: K-562, Blast phase CML (bcr-abl+), 72 h, ± SD. The method, then:
as §1, §2

Series [6] in a line: MTT cell viability assay. As to conditions: human, ± SD, read-out: In vitro cytotoxicity (IC50). The series is classed as cell-based, human. How it is done:
as §1, §2

For `CCN(CCCCOC(=O)c1ccc(OC)c(OC)c1)C(C)Cc1ccc(OC)cc1` (stereo not shown) [Mebeverine hydrochloride, mebeverine hydrochloride, reference compound], the concentration for half-maximal inhibition (IC50) at 72 h in series [1] was more than 300 µM; in series [6] (K-562 cells (blast phase chronic myeloid leukemia), K-562, Blast phase CML (bcr-abl+)), 85.4 ± 8.3 µM; in series [6] (LAMA-84, CML in blast crisis (bcr-abl+)), 72 ± 6.2 µM. In series [2], the antimicrobial activity entry is given as “did not show any antimicrobial activity”. Also, in series [3], the “5-HT3 expression in SM preparations” value was “weak 5-HT3 expression observed”. The “In vitro cytotoxicity (IC50)” value in series [4] and in series [5] was “just under the hundred-micromolar range” each time.
